SMILES strings stand for the structures.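 Interpolation was linear, between the two tested concentrations surrounding the appropriate level; five concentrations were tested over 48 hours in 96-well plates. Here, GI50 denotes the concentration required for 50% inhibition of growth. TGI is the concentration that stops growth completely.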

This is an account of results in PubChem BioAssay (NCI).

Some test systems named below: SR leukemia; M19-MEL melanoma; SN12K1 renal; XF 498 CNS; DLD-1 colon; HOP-18 NSCLC; SNB-78 CNS; DMS 273 small cell lung; DMS 114 small cell lung; KM20L2 colon; P388 leukemia; P388/ADR leukemia; LXFL 529 NSCLC; RXF-631 renal.
Holding throughout (assay): NCI tumour cell line growth inhibition, 48 h

`CCOC(=O)C1=C(C)OC2(O)C=CC(O)=C3C(=O)N(c4ccccc4)C(=O)C312` (stereo not given): in the assay with SR leukemia, the TGI was 53.2 µM.
As to `CN1CCc2[nH]c3ccccc3c2C1`, the TGI in the assay with M19-MEL melanoma, in the assay on SN12K1 renal, in the assay on XF 498 CNS, with DLD-1 colon, in the assay on HOP-18 NSCLC and in the assay with SNB-78 CNS was greater than 100 µM throughout. In addition, the TGI in the assay on DMS 273 small cell lung, in the assay on DMS 114 small cell lung and in the assay on KM20L2 colon was greater than 100 µM throughout.
Take `Nc1ncnc2nc[nH]c12`: the TGI is greater than 250 µM in the assay on P388 leukemia; greater than 250 µM in the assay with P388/ADR leukemia; greater than 250 µM with M19-MEL melanoma; greater than 250 µM with SN12K1 renal; 20.8 µM in the assay with XF 498 CNS; greater than 250 µM in the assay with DLD-1 colon. The TGI in the assay with HOP-18 NSCLC was greater than 250 µM; with SNB-78 CNS, greater than 158 µM; in the assay with DMS 273 small cell lung it was greater than 206 µM; in the assay on DMS 114 small cell lung it was greater than 250 µM; with KM20L2 colon it was greater than 250 µM.
`COc1cc2c(c(O)c1OC)-c1c(cc(OC)c(OC)c1OC)CC(C)C(C)C2` (stereo not given) gave a TGI with SR leukemia of 57 µM.
Take `CC(CCN)(CCN)[N+](=O)[O-]`: the TGI with SR leukemia was greater than 100 µM.
In turn, `CN(C)CCCSc1nc2ccccc2[nH]1` yielded a TGI in the assay on SR leukemia greater than 100 µM.
On to `CCCCCCCCCCCCCCCCCCOc1ccccc1CC(=O)OCC[N+]1(C)CCCCC1`, for which, in the assay with SR leukemia, the GI50 was 1.93 µM and the TGI stood at 4.97 µM.
In the assay on SR leukemia, `O=C(O)c1cc([N+](=O)[O-])cc2c(=O)c3cnccc3[nH]c12` registered a TGI greater than 100 µM.
Same read-out and setting: the result for `CN1CCOC(c2ccc(Cl)cc2)O1` (stereo not given) reads greater than 100 µM.
Take `O=C(Nc1ccc(Cl)cc1)c1cc2cc(N=Nc3ccccc3Cl)ccc2oc1=O`: the TGI with M19-MEL melanoma worked out at 53 µM; in the assay with XF 498 CNS it was 67.1 µM; in the assay with SR leukemia, 34.9 µM; in the assay on DLD-1 colon, 32.2 µM; with HOP-18 NSCLC, 96.9 µM; in the assay on SNB-78 CNS, 79.7 µM. In addition, the TGI with DMS 114 small cell lung stood at 25 µM; in the assay with LXFL 529 NSCLC it was 32.5 µM; in the assay on KM20L2 colon, 46.8 µM.
Consider `CN(CCCCCl)P(=O)(OCc1ccc([N+](=O)[O-])o1)OC[C@H]1O[C@@H](n2cc(F)c(=O)[nH]c2=O)C[C@@H]1O` (stereo not given in full), for which the TGI in the assay on SR leukemia is 24.2 µM.
`CCOc1ccc(NC(=O)C(=O)CC(=O)c2sc(NNC(C)=O)nc2C)cc1`: the TGI in the assay on M19-MEL melanoma, in the assay with XF 498 CNS, with RXF-631 renal, in the assay on SR leukemia, in the assay with DLD-1 colon and in the assay with SNB-78 CNS was greater than 100 µM throughout. Also, the TGI in the assay with DMS 273 small cell lung, in the assay with LXFL 529 NSCLC and in the assay with KM20L2 colon was greater than 100 µM each time.
On to `C[C@]12C=CC(=O)C=C1CC[C@@H]1[C@@H]2CC[C@]2(C)OC(=O)CC[C@@H]12`, for which the TGI in the assay with P388 leukemia is greater than 486 µM; with P388/ADR leukemia, 449 µM; in the assay on SN12K1 renal, 498 µM; in the assay on XF 498 CNS, 373 µM; with RXF-631 renal, greater than 500 µM; in the assay on SR leukemia, greater than 489 µM. For the same molecule, the TGI is greater than 500 µM with DLD-1 colon; 232 µM in the assay with HOP-18 NSCLC; greater than 500 µM in the assay on SNB-78 CNS; greater than 500 µM in the assay on DMS 273 small cell lung; greater than 500 µM in the assay on DMS 114 small cell lung; greater than 500 µM with LXFL 529 NSCLC. This molecule displayed a TGI with KM20L2 colon greater than 470 µM.
